Data from patent US9642361B2, “Method for changing the development pattern, increasing the growth and the accumulation of starch, changing the structure of starch and increasing the resistance to water stress in plants” (IDEN BIOTECHNOLOGY, S.L., priority 2010, dated 2017).

What was measured:
[1] = test system: Arabidopsis thaliana plants; test: Starch content in leaves of Arabidopsis plants cultured next to solutions of volatile compounds; assay type: in vivo; details: for starch accumulation in leaves: 2 cubic centimeters of 5% aqueous solution in 500 cubic centimeter box, two days
Protocol: To that end, the plants were cultured in Petri dishes containing solid MS medium with 90 mM sucrose. The plants germinated and were grown for two weeks in growth chambers with a photoperiod of 16 h of light (300 μmol of photons s^−1 m^−2) and at a constant temperature of 24° C.
The Petri dishes containing completely developed plants were placed in 500 cubic centimeter grow boxes with the particularity that, instead of microbial cultures, […] were introduced in said boxes in each case: indol, DTT (dithiothreitol), NAA (1-naphthaleneacetic acid), β-mercaptoethanol, salicylic acid, jasmonic acid, cysteine, acetoin, ethanol, methanol, β-hydroxybutyrate, butanediol, propanoic acid, acetic acid, acetaldehyde, formic acid or butyric acid, without there being any physical contact between the plant and the solution. The ethylene was provided in the form of ethephon powders. The boxes were sealed and leaves were harvested after two days of incubation to analyze starch content. Leaves were harvested at the end of the light period. As a negative control, the Petri dishes containing completely developed plants were cultured for two days in sealed plastic boxes together with a Petri dish containing 2 cubic centimeters of water in the absence of any of the volatile compounds assayed.
Starch was measured using an amyloglucosidase-based test kit (Boehringer Mannheim, Germany).

[2] = test system: leaves cut from Arabidopsis; test: Starch accumulation in cut Arabidopsis leaves with transcription/translation inhibitors in presence of fungal volatiles; assay type: in vivo, Arabidopsis thaliana; details: 50 μM cycloheximide or 200 μM cordycepin; after 2 hours of incubation
Protocol: The experiment of section 5.1 was repeated, using in this case leaves cut from Arabidopsis incubated in Petri dishes with solid MS medium supplemented with 90 mM sucrose and, where appropriate, with 50 micromoles (μM) of translation inhibitor cycloheximide (Sigma) and 200 micromoles (μM) of transcription inhibitor cordycepin (Sigma) (Fritz, C. C. et al., 1991: Proc. Natl. Acad. Sci. USA 88: 4458-4462; Hayashi, T. and Takagi, S., 2003; Plant Cell Physiol. 44: 1027-1036; Dhonukshe et al., 2006: Developmental Cell 10: 137-150). The dishes were deposited in 500 cubic centimeter boxes in which cultures of Alternaria alternata had previously been deposited.

detached potato leaves = test: Starch content in detached potato leaves with added amino acids, with or without FVs; assay type: in vivo, Solanum tuberosum; details: exogenously added amino acid, +FV, 2 days
Protocol: FIG. 19: Graph depicting the starch content (expressed as μmoles of glucose per gram of fresh weight) measured in potato plants cultured for 2 days in MS supplemented with 90 mM sucrose and the indicated concentrations of cysteine, glycine, serine and methionine in the absence (−FV) or in the presence (+FV) of volatiles emitted by A. alternata grown in solid MS medium supplemented with 90 mM sucrose.
Therefore, it was investigated whether plastidial cysteine provision impairments are directly involved in MIVOISAP by measuring the starch content in detached potato leaves cultured in the presence and in the absence of FVs emitted by Alternaria alternata, and in the presence of different concentrations of cysteine.

Row | SMILES | starch accumulation in leaves [1] | also measured
1 | CC=O [acetaldehyde] | promote starch overaccumulation | –
2 | CC(=O)O [acetic acid] | promote starch overaccumulation | –
3 | CCCC(=O)O [butyric acid] | promote starch overaccumulation | –
4 | Nc1ncnc2c1ncn2[C@@H]1O[C@H](CO)C[C@H]1O [cordycepin] | – | starch accumulation in presence of fungal volatiles [2]: strongly inhibit starch accumulation
5 | C[C@@H]1C[C@@H]([C@H](O)CC2CC(=O)NC(=O)C2)C(=O)[C@@H](C)C1 [cycloheximide] | – | starch accumulation in presence of fungal volatiles [2]: strongly inhibit starch accumulation
6 | N[C@@H](CS)C(=O)O [cysteine] | – | MIVOISAP (starch content) in detached leaves (detached potato leaves): strongly suppressed
7 | O=CO [formic acid] | promote starch overaccumulation | dose dependence of the effect on starch accumulation ([1]; solutions at 1%, 2% or 5% (v/v)): dose-dependent
8 | CCC(=O)O [propanoic acid] | promote starch overaccumulation | –
